# Reference: patent US11771692B2, “N-hydroxyethyl didehydroazapodophyllotoxins as GBP1 inhibitors and methods of overcoming treatment resistance in cancer” (The Board of Trustees of the Leland Stanford Junior …, priority 2018, dated 2023)
# Entries after “also recorded” stand apart in the source; their conditions may differ. Like-named read-outs stand apart in the source and are kept apart here.
# How the values were obtained:
# SCC-90 tumor xenograft = test: Head and neck SCC-90 tumor xenograft in nude mice; type: in vivo; conditions: SCC-90, nude mice
# Description: An immunodeficient nude mice model was also used to study the in vivo potential of SU093 and SU056 for head and neck cancer. Nude mice (n=3/group) were subcutaneously injected in the right flank with 5×10^6 SCC-90 cells mixed with matrigel and observed regularly until the tumor size reached about 200 mm^3. The treatment regime with drugs including dose, formulation and route of delivery was similar to ovarian cancer study discussed above. Doses of SU093 and SU056 were administered daily until 35 days and mice were sacrificed thereafter. […] At the end of 35 days, calculated tumor volume/mouse was 860.33±21.78 mm^3, 694.67±14.64 mm^3, and 435.00±10.81 mm^3 for control, SU093 and SU056 treatment groups, respectively. This equates to a 20% and 50% reduction in tumor volume for SU093 and SU056 treatment groups, respectively. A decrease in tumor weight of about 21% (P value not significant) and 54% (P<0.002) was also observed for the SU093 and SU56 treatment groups, respectively.
# GBP1 = test: Confocal microscopy of GBP1 and β-tubulin in SCC-90 cells; type: cell-based; conditions: SCC-90, SU093 50 nM, 6 h
# Description: (§1) The potential for GBP1 inhibition and radiosensitzation in head and neck cancer cells was also investigated.
# SCC-90 cells [1] = test: Clonogenic radiosensitization assay in SCC-90 cells; type: cell-based; conditions: SCC-90, SU093 50 nM then radiation
# Description: as §1
# OVCAR8-PRes cells = test: Growth inhibition of paclitaxel-resistant OVCAR8-PRes cells; type: cell-based
# Description: The cytotoxic effect of SU093 and paclitaxel combination treatment was also studied (FIG. 5, panel E).
# [2] = Maximum tolerable dose study, 14 days IP; type: in vivo, mice
# Description: FIG. 7, panel A illustrates in vivo PK studies, C57BL/6 mice. Drug concentration in plasma was quantified at different time points using LCMS after a single IP injection of SU093. FIG. 7, panel B illustrates the drug concentration in harvested ovaries and liver of C57BL/6 mice after 14 days of administration with SU093 (100 mg/kg) by daily IP injection.
# To determine the maximum tolerable dose of an exemplary GBP1 inhibitor, SU093 was administered to C57BL6 female mice (n=10) intraperitoneally at 100 mg/kg for 14 days. […] At the end of the 14th day, mice were sacrificed and organs were harvested.
# A549 = test: MTT cytotoxicity assay, A549; type: cell-based; conditions: Homo sapiens, Lung
# Description: (§2) It was observed that SU093 was highly cytotoxic for all cell lines tested with IC50 values in the nanomolar range.
# HEK293 = test: MTT cytotoxicity assay, normal HEK293 cells; type: cell-based
# Description: FIG. 3, panels A-E. FIG. 3, panel A illustrates the effects of SU093 on survival of human normal HEK293 cell line and ovarian cancer cell lines OVCAR8 & SKOV3 cells via MTT assay. FIG. 3, panel B illustrates the effect of SU093 on GBP1 and PIM1 expression in OVCAR8 cells. […] FIG. 3, panel D illustrates quantification of overexpression and knockdown of GBP1 gene in stably transfected OVCAR8 cells. FIG. 3, panel E illustrates cytotoxicity of SU093 as evaluated in GBP1-OV, GBP1-WT and GBP1-KD OVCAR8 via MTT assay.
# (§3) Furthermore, OVCAR8 cells with overexpressed (OV) and knockdown (KD) of GBP1 gene were created (FIG. 3, panel D) and cell viability experiments were performed on GBP1-WT (wild-type), GBP1-OV and GBP1-KD OVCAR8 cells at different doses of SU093.
# SCC-90 cells [3] = test: Cell cycle analysis of SCC-90 cells, SU093/radiation combination; type: cell-based; conditions: SCC-90, SU093 50 nM and/or 10 Gy, 24 h
# Description: as §1
# B2M = B2M expression in SCC-90 cells; type: cell-based; conditions: SCC-90 cells treated with SU093
# Description: Down-regulation of Major Histocompatibility Complex class I molecules (MHC-I) expression is a widespread phenomenon used by tumor cells to escape antitumor T-cell-mediated immune responses. Reduction in B2-microglobulin (B2M, a molecule associated with MHC-I) helps cancer cells to hide them from immune system (Hicklin, D. J.; Marincola, F. M.; Ferrone, S., HLA class I antigen downregulation in human cancers: T-cell immunotherapy revives an old story. Molecular Medicine Today 1999, S (4), 178-186.) In experiments conducted herein, reduced expression B2M in GBP1-OV cells was observed (FIG. 1, panel F).
# OVCAR8 = test: MTT cytotoxicity assay, OVCAR8; type: cell-based; conditions: Homo sapiens, OVCAR-8, Ovarian
# Description: as §2, §3
# ID-8 tumor xenograft = test: Ovarian ID-8 tumor xenograft in C57BL6 mice; type: in vivo
# Description: An immunocompetent syngeneic mouse model was used to evaluate in vivo antitumor effect of SU093 and SU056 (also referred to herein as Compound (I)) for ovarian cancer. C57BL6 female mice (n=5/group) were subcutaneously injected in the right flank with 5×10^6 ID-8 cells mixed with matrigel. From the day following xenograft implantation, mice were monitored regularly for tumor growth and once the tumors reached approximately 100 mm^3, the mice were randomly divided into three groups and respective treatments were given.
# Group I (vehicle control): 100 μl of 10% PEG300 (w/v) in saline;
# Group II: mice treated with SU093 (20 mg/kg); and
# Group III: mice treated with SU056 (20 mg/kg).
# Doses were administered intraperitoneally (IP) for 7 days/week for 42 days and the mice were sacrificed on day 43. Tumor sizes were measured twice weekly using digital caliper and tumor volume was calculated by the formula: 0.5236 L1 (L2)^2, where L1 is long diameter, and L2 is short diameter.
# SCC-90 cells [4] = test: MTT cell viability in SCC-90 cells with GBP1 overexpression and knockdown; type: cell-based; conditions: SCC-90, SU093 0.5-1000 nM, 48 h
# Description: as §1
# HCT116 = test: MTT cytotoxicity assay, HCT116; type: cell-based; conditions: Homo sapiens, HCT-116, Colorectal
# Description: as §2
# GBP1 and PIM1 = test: Immunoblotting of GBP1 and PIM1 expression in OVCAR8 cells; type: cell-based
# [5] = ID-8, 20 mg/kg IP daily, 42 days, vs control
smiles,measurement,setting,value
COc1ccc2c(c1)N(CCO)C1=C(C(=O)OC1)C2c1ccccc1 (centres unmarked) [SU093],tumor volume/mouse,"SCC-90 tumor xenograft; 20 mg/kg IP daily, end of 35 days",694.67±14.64 mm^3
same,decrease in tumor weight,"SCC-90 tumor xenograft; 35 days, vs control",about 21%
same,reduction in tumor volume,"SCC-90 tumor xenograft; 35 days, vs control",20%
same,GBP1 nuclear translocation and β-tubulin expression,GBP1,inhibits the nuclear translocation of GBP1 protein and reduces the tubulin expression; also recorded: blocking its nuclear translocation and reducing β-tubulin expression
same,"radiation sensitizing effect, clonogenic assay",SCC-90 cells [1],radiosensitization effect; also recorded: significant radiation sensitizing effect
same,inhibition at 0.015 µM,"OVCAR8-PRes cells; 15 nM SU093, read-out: inhibition in the cell growth",50%
same,inhibition at 0.015 µM,"OVCAR8-PRes cells; SU093 (15 nM) and paclitaxel (2 μM), read-out: growth inhibition, combination treatment",80%
same,CHEM-22 panel analysis,[2]; 100 mg/kg for 14 days,only acute liver toxicity
same,weight loss or sign of toxicity,"[2]; C57BL6 female mice, 100 mg/kg IP, 14 days",no significant weight loss or sign of toxicity
same,concentration at 14 days,"[2]; female, C57BL/6, mouse, ovaries, intraperitoneal, 100 mg/kg daily IP, after 14 days, LCMS, read-out: concentration in the target organ (ovaries)",3730 ng/mL
same,IC50,A549,2.48 nM
same,cytotoxicity for normal cell line,HEK293,no cytotoxicity
same,"cell cycle, SU093/radiation combination",SCC-90 cells [3],"G2/M phase arrest followed by cell death; also recorded: increase in G2/M phase arrest, followed by apoptosis"
same,B2M expression,B2M,induced expression of B2M
same,IC50,OVCAR8,2.49 nM
same,gross sign of toxicity (body weight and diet consumption),"ID-8 tumor xenograft; 20 mg/kg IP daily, 42 days",did not show any gross sign of toxicity
same,"liver toxicity parameters (AST, ALT, Alkaline phosphatase)","ID-8 tumor xenograft; ELISA, end of 42 days, vs control",No significant difference
same,reduction in tumor volume,ID-8 tumor xenograft; [5],37.5%
same,tumor weight decreased,ID-8 tumor xenograft; [5],39.65%
same,tumor volume/mouse,"ID-8 tumor xenograft; ID-8, 20 mg/kg IP daily, end of 6 weeks",318.81±26.09 mm^3
same,cytotoxic effect in GBP1 OV and KD cells,SCC-90 cells [4],GBP1 dependent cytotoxic effect
same,IC50,HCT116,1.24 nM
same,GBP1 and PIM1 expression,GBP1 and PIM1,inhibits GBP1 and PIM1 expressions in a dose-dependent manner
